How the values were obtained:
Assay in all cases: relative viability (nuclei count vs DMSO), 5 days (fraction); higher = more cells survive
[1] = compound: C[C@]12O[C@H](C[C@]1(O)CO)n1c3ccccc3c3c4c(c5c6ccccc6n2c5c31)CNC4=O [Lestaurtinib] + Cc1cc(Nc2cc(N3CCN(C)CC3)nc(Sc3ccc(NC(=O)C4CC4)cc3)n2)n[nH]1 [Tozasertib] (partner 0.1 µM)
Method in brief: (§1)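 Relative viability was taken as the ratio of nuclei in treated wells to nuclei in vehicle wells. Lung cancer cell lines in 1536-well plates received compounds by pin tool one day after seeding, either one drug alone or a fixed anchor-drug dose plus five library-drug doses (not always all listed) in √10 steps. Nuclei were counted on 4× images after 5 days of treatment, and values are medians of duplicate plates.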

[2] = compound: C[C@]12O[C@H](C[C@]1(O)CO)n1c3ccccc3c3c4c(c5c6ccccc6n2c5c31)CNC4=O [Lestaurtinib] + C[C@]1(O)C[C@@H](c2nc(-c3ccc4ccc(-c5ccccc5)nc4c3)c3c(N)nccn32)C1 [Linsitinib] (partner 1 µM)
Method in brief: as §1

[3] = compound: C1/C(=C\C2=CC=CS2)/C(=O)/C(=C/C3=CC=CS3)/C1 + C[C@]1(O)C[C@@H](c2nc(-c3ccc4ccc(-c5ccccc5)nc4c3)c3c(N)nccn32)C1 [Linsitinib] (partner 1 µM)
Method in brief: as §1

[4] = compound: C1/C(=C\C2=CC=CS2)/C(=O)/C(=C/C3=CC=CS3)/C1 + COc1cc2c(Oc3ccc(NC(=O)C4(C(=O)Nc5ccc(F)cc5)CC4)cc3F)ccnc2cc1OCCCN1CCOCC1 [Foretinib] (partner 0.25 µM)
Method in brief: as §1

| Cell Line | relative viability ([1]; first compound 0.005 µM) | relative viability ([1]; first compound 0.01581 µM) | relative viability ([1]; first compound 0.05 µM) | relative viability ([1]; first compound 0.1581 µM) | relative viability ([1]; first compound 0.5 µM) | relative viability ([2]; first compound 0.005 µM) | relative viability ([2]; first compound 0.01581 µM) | relative viability ([2]; first compound 0.05 µM) | relative viability ([2]; first compound 0.1581 µM) | relative viability ([2]; first compound 0.5 µM) | relative viability ([3]; first compound 0.2 µM) | relative viability ([3]; first compound 0.6325 µM) | relative viability ([3]; first compound 2 µM) | relative viability ([3]; first compound 6.325 µM) | relative viability ([3]; first compound 20 µM) | relative viability ([4]; first compound 0.2 µM) | relative viability ([4]; first compound 0.6325 µM) | relative viability ([4]; first compound 2 µM) | relative viability ([4]; first compound 6.325 µM) | relative viability ([4]; first compound 20 µM) |
| --- | --- | --- | --- | --- | --- | --- | --- | --- | --- | --- | --- | --- | --- | --- | --- | --- | --- | --- | --- | --- |
| NCI-H2085 | 0.828 | 0.83 | 0.75 | 0.882 | 0.56 | 0.952 | 1.01 | 1.04 | 0.901 | 0.819 | 1.05 | 0.941 | 0.805 | 0.797 | 1.05 | 1.09 | 1.05 | 0.984 | 0.927 | 0.883 |
| NCI-H2087 | 0.321 | 0.378 | 0.208 | 0.265 | 0.212 | 1 | 0.923 | 0.709 | 0.648 | 0.275 | 1.06 | 1.05 | 0.928 | 0.678 | 0.936 | 1.26 | 1.28 | 1.15 | 1.17 | 1.13 |
| NCI-H2126 | 0.919 | 0.963 | 0.802 | 0.699 | 0.48 | 0.725 | 0.735 | 0.573 | 0.605 | 0.585 | 0.673 | 0.698 | 0.754 | 0.553 | 0.709 | 1.38 | 0.985 | 1.3 | 1.08 | 1.08 |
| NCI-H2228 | 0.178 | 0.23 | 0.257 | 0.219 | 0.163 | 0.892 | 0.812 | 0.402 | 0.284 | 0.37 | 0.764 | 0.628 | 1.16 | 0.563 | 0.631 | 0.816 | 0.992 | 0.869 | 0.913 | 0.715 |
| NCI-H2347 | 1.15 | 0.64 | 0.493 | 0.412 | 0.537 | 1.06 | 1.05 | 0.86 | 0.575 | 0.55 | 0.918 | 0.953 | 0.922 | 0.891 | 0.938 | 0.703 | 1.1 | 1.08 | 0.729 | 1.03 |
| NCI-H2405 | 0.797 | 0.814 | 0.78 | 0.511 | 0.271 | 0.934 | 0.703 | 0.674 | 0.612 | 0.241 | 0.992 | 1.09 | 1.03 | 0.803 | 1.01 | 1.11 | 1.03 | 1.17 | 0.948 | 1.12 |
| NCI-H3122 | 0.56 | 0.553 | 0.421 | 0.366 | 0.176 | 1.11 | 1.09 | 1.01 | 1.08 | 0.527 | 1.01 | 1.06 | 1.09 | 0.919 | 0.97 | 1.01 | 0.934 | 1 | 0.81 | 0.846 |
| PC-3 [JPC-3] | 0.87 | 0.998 | 0.765 | 0.777 | 0.587 | 1.02 | 0.954 | 0.951 | 0.87 | 1 | 1.1 | 0.956 | 0.949 | 0.891 | 0.949 | 1.11 | 1.05 | 1.01 | 0.865 | 1.11 |
| PC-14 | 0.639 | 0.668 | 0.674 | 0.546 | 0.163 | 0.933 | 1.04 | 0.543 | 0.613 | 0.578 | 0.96 | 0.919 | 0.922 | 0.829 | 0.981 | 0.942 | 0.932 | 0.937 | 0.847 | 0.885 |
| RERF-LC-KJ | 0.489 | 0.592 | 0.44 | 0.433 | 0.284 | 0.964 | 0.946 | 0.535 | 0.619 | 0.516 | 0.903 | 0.922 | 0.801 | 0.812 | 0.794 | 0.932 | 0.929 | 0.866 | 0.985 | 0.808 |
| SK-LU-1 | 0.288 | 0.349 | 0.267 | 0.293 | 0.204 | 0.883 | 0.686 | 0.537 | 0.505 | 0.261 | 1.04 | 1.08 | 1.16 | 0.984 | 1.24 | 0.846 | 0.85 | 0.937 | 0.795 | 0.831 |
| SK-MES-1 | 0.966 | 0.834 | 0.341 | 0.455 | 0.197 | 1.04 | 1.06 | 0.501 | 0.485 | 0.317 | 1.05 | 1.1 | 0.992 | 0.818 | 0.982 | 0.949 | 1 | 0.925 | 0.701 | 0.848 |
| SW 1573 | 0.146 | 0.172 | 0.142 | 0.1 | 0.116 | 0.796 | 0.841 | 0.695 | 0.615 | 0.222 | 0.765 | 0.839 | 0.959 | 0.744 | 0.829 | 0.879 | 0.965 | 0.939 | 0.843 | 0.825 |

Reference: the supplement of paper PMC10307832
